“And” between values parts separate entries of the source, which are not always exact repeats. Identical values can stand only once.
Target: PSMA (Homo sapiens, UniProt Q04609)
Test: measured PSMA affinities (ka, kd, KD) of Dap(Me) substituted bicycles, Table 1
Format: binding
Conditions: for ka: association rate; for kd: dissociation rate

Sequence of PSMA (Q04609 whole entry): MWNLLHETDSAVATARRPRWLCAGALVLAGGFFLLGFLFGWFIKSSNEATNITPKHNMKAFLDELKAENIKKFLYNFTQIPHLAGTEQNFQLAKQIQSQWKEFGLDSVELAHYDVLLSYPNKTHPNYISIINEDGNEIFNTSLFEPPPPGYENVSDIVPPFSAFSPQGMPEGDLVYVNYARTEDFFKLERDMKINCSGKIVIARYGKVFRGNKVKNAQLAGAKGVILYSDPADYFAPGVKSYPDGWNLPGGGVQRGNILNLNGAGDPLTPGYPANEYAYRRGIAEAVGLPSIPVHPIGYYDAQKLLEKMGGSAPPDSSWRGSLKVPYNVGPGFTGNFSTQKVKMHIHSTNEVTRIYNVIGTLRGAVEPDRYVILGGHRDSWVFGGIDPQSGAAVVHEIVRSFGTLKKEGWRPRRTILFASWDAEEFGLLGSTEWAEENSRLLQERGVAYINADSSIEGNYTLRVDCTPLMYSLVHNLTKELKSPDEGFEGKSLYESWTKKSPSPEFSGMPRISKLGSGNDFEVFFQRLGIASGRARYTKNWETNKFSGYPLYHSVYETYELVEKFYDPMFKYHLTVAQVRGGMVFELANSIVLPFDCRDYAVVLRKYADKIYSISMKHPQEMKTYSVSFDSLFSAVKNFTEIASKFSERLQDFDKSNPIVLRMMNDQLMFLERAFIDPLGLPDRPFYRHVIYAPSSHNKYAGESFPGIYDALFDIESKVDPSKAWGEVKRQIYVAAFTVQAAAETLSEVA

Substance | ka | kd
[Ac][Gla]V[Dap(Me)]WDCF[Nle][Nle]EDGT[Dap(Me)]A [BCY00009312] | 1.01E+05 M1s1 and 7.35E+04 M1s1 | 7.77E−03 s1 and 1.21E−02 s1
[Ac][dE]V[Dap(Me)]KDCF[Nle][Nle]EDGT[Dap(Me)]A [BCY00009314] | 3.79E+04 M1s1 | 3.86E−02 s1
[Ac][dE]V[Dap(Me)]WDCFL[Nle]EDGT[Dap(Me)]A [BCY00009306] | 9.04E+04 M1s1 | 1.97E−02 s1
[Ac][dE]V[Dap(Me)]WDCFY[Nle]EDGT[Dap(Me)]A [BCY00009308] | 8.73E+04 M1s1 | 2.88E−02 s1
[Ac][dE]V[Dap(Me)]WDCF[Hse(Me)][Nle]EDGT[Dap(Me)]A [BCY00009305] | 4.32E+04 M1s1 | 5.35E−02 s1
[Ac][dE]V[Dap(Me)]WDCF[Nle]LEDGT[Dap(Me)]A [BCY00009310] | 5.93E+04 M1s1 | 4.32E−02 s1
[Ac][dE]V[Dap(Me)]WDCF[Nle][Hse(Me)]EDGT[Dap(Me)]A [BCY00009309] | 5.17E+04 M1s1 | 2.93E−01 s1
[Ac][dE]V[Dap(Me)]WDCF[Nle][Nle]EDGT[Dap(Me)]A [BCY00009300] | 7.04E+04 M1s1 | 1.02E−02 s1
[Ac][dE]V[Dap(Me)]WDCF[Nle][tBuAla]EDGT[Dap(Me)]A [BCY00009311] | 2.51E+04 M1s1 | 3.10E−03 s1
[Ac][dE]V[Dap(Me)]WDCF[tBuAla][Nle]EDGT[Dap(Me)]A [BCY00009307] | 6.71E+04 M1s1 | 3.26E−02 s1
[Ac][dE]V[Dap(Me)]WDCK[Nle][Nle]EDGT[Dap(Me)]A [BCY00009315] | 2.81E+04 M1s1 | 4.62E−02 s1
[Ac][dE]V[Dap(Me)]WDCY[Nle][Nle]EDGT[Dap(Me)]A [BCY00009304] | 1.03E+05 M1s1 | 1.24E−02 s1
[Ac][dE]V[Dap(Me)][2Nal]DCF[Nle][Nle]EDGT[Dap(Me)]A [BCY00009303] | 8.74E+04 M1s1 | 1.86E−02 s1
[Glutarate][dE]V[Dap(Me)]WDCF[Nle][Nle]EDGT[Dap(Me)]A [BCY00009313] | 1.24E+05 M1s1 | 9.81E−03 s1
